In patent publication US20030037344A1, “METHOD FOR EVALUATING THE ABILITY OF A COMPOUND TO INHIBIT NEUROTOXICITY” (priority 1997, published 2003):

Test system: PC12 cells stably transfected with RAGE and transiently transfected with mutant presenilin-2 (N141 mutant)
Experiment: TUNEL apoptosis assay in transfected PC12 cells exposed to Aβ
Assay type: cell-based
Conditions: Aβ 0.3 and 1 μM, 24 hrs; cells co-transfected to express mutant presenilin-2 and RAGE
Description: Induction of apoptosis. For apoptosis studies, PC12 cultures, either mock-transfected (control), stably transfected with the RAGE-bearing construct or stably transfected with the RAGE-bearing construct and transiently transfected with the mutant presenilin-2 bearing construct, and were then exposed to Aβ (0.3 or 1 μM) for 24 hrs. At the end of this time, apoptosis was determined using the TUNEL assay by counting positively staining nuclei per twenty high-power fields. Under these conditions, mutant presenilin-2 by itself has little effect on apoptosis, as shown previously (FIG. 3).
Generation of Stable Transfected Cells. PC12 cells, grown as described and transfected with pcDNA3-RAGE (the latter comprised of the human RAGE cDNA) (Yan, et al., 1996) using lipofectamine (12 μg/ml) according to the manufacturer's instructions (Gibco-BRL). Cells were maintained in the presence of G418. Transient transfection was performed with a vector including mutant presenilin-2 (N141 mutant) (Wolozin et al., 1996), using lipofectamine, as described (Wolozin et al., 1996). Immunoblotting and immunostaining of PC12 cells for RAGE was performed as described previously (Yan, et al., 1996).
Apoptosis assay. The terminal deoxynucleotidyl transferase-mediated dUTP nick end labeling (TUNEL) assay was performed as described using a kit from Travigen, a peroxide-based TACS-TdTkit (Woolozin, et al., 1996). […]

Question: How did the “apoptosis (TUNEL, positively staining nuclei per twenty high-power fields)” value turn out when “Aβ: Aβ (comprised of residues 1-42), synthesized, HPLC purified, purchased from a commercial supplier” was run?
Answer: dramatic increase in apoptosis
